These results are taken from patent US9199963B2, “Heterocyclic compound” (Takeda Pharmaceutical Company Limited, priority 2013, dated 2015).

One series deals with T1, human MCHR1 (Homo sapiens, UniProt Q99705).
T1 construct: expressed in transfected cells; host or cells: CHO dhfr- cells, clone #4
The series can be described thus: MCH receptor 1 antagonistic activity using Ca2+ mobilization assay. The class given is cell-based. The following applies: test compound 0.1 μM; ligand MCH (4-19) 2 nM; human MCHR1-expressing CHO cells (clone #4); read-out: Inhibition rate % (0.1 μM). The procedure:
Measurement of MCH Receptor 1 Antagonistic Activity of Test Compound Using Ca^2+ Mobilization Assay
Using an expression vector plasmid introduced with human MCHR1 gene for expression in animal cells, human MCHR1 gene was introduced into CHO cells (CHO dhfr^−) by Lipofectamine LTX (Invitrogen). The cells were cultured in selection MEMα medium [445 mL of MEMα medium without nucleic acid and added with 5 mL of Penicillin-Streptomycin (Invitrogen) and 50 mL of dialyzed fetal bovine serum]. Colony 24 clones grown in the selection medium, which were human MCHR1 gene-expressing CHO cell candidates, were selected. […] An integrated dispensing function fluorometer (CellLux, PerkinElmer) was used for Ca^2+ mobilization assay. […] The medium was removed, and the cells were washed with phosphate buffered saline (PBS). A Ca^2+ indicator dye reagent (DOJINDO LABORATORIES, Ca screening no-wash kit Fluo4) was added at 100 μL/well, and the dye was allowed to penetrate into the cells for 30 min in an incubator at 5% CO2, 37° C. The plate was set on a plate reader. First, a test compound solution diluted with an assay buffer [10 mM HEPES (pH 7.4), 1× assay buffer containing 0.1% BSA (DOJINDO LABORATORIES, attached to Ca screening no-wash kit Fluo4)] or DMSO solution was added at 50 μL/well, and then ligand MCH (4-19) peptide (final concentration 2 nM) diluted with assay buffer or DMSO was added at 50 μL/well, during which changes in intracellular fluorescence were measured at 2 second intervals.

In series [1] the target is T2, human MCH receptor 1 (MCHR1) (Homo sapiens, UniProt Q99705).
T2 construct: expressed in transfected cells; host or cells: CHO cell clone 57 (described in WO01/82925); membrane fraction
T2 sequence (Q99705 whole entry): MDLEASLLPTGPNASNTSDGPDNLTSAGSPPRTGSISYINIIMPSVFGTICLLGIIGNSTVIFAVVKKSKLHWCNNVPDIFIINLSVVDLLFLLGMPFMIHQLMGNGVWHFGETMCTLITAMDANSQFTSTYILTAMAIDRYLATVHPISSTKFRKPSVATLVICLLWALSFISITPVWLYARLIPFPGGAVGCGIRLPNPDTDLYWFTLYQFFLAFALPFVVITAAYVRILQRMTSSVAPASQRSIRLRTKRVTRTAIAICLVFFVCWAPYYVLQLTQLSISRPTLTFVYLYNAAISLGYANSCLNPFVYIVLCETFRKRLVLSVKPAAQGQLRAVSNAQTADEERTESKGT
In words: Human MCH receptor 1 (MCHR1) competitive inhibitory activity using binding assay. The following applies: test compound 0.1 μM; [125I]-MCH (4-19); human MCHR1-expressing CHO cellular membrane fraction; read-out: Binding inhibition rate % (0.1 μM). The procedure: Determination of Human MCH Receptor 1 (MCHR1) Competitive Inhibitory Activity of Test Compound Using Binding Assay
1. Preparation of Membrane Fraction
In phosphate buffered saline (pH 7.4) supplemented with 5 mM EDTA (ethylenediaminetetraacetic acid) were respectively suspended human MCHR1-expressing CHO cells (1×10^8 cells) and centrifuged. Homogenate buffer (10 mL, 10 mM NaHCO3, 5 mM EDTA, pH 7.5, 0.5 mM PMSF (phenylmethylsulfonyl fluoride), 20 mg/L leupeptin, 4 mg/L E-64, 1 mg/L pepstatin A) was added to the pellets of the cells and, using Polytron Homogenizer, the mixture was homogenated. The supernatant obtained after centrifugation at 400×g for 10 min was further centrifuged at 100,000×g for 1 hr to give precipitate of the membrane fraction. The precipitate was suspended in 2 mL of assay buffer [20 mM Tris-HCl (pH 7.5), 5 mM EDTA, 0.5 mM PMSF, 20 mg/L leupeptin, 4 mg/L E-64, 1 mg/L pepstatin A]. The membrane fractions were suspended in assay buffer to a protein concentration of 2 mg/mL, and after dispensing, preserved at −80° C. and used upon thawing each time when in use.
The MCHR1 ligand binding inhibitory activity of the test compound was determined as follows.
The mixture was reacted with stirring at room temperature for 1 hr, and the plate was set on FilterMate Harvester (PerkinElmer). […] The glass filter plate was dried, MicroScint 0 (PerkinElmer) was added at 25 μL/well, and the resulting radioactivity was measured by TopCount liquid scintillation counter (PerkinElmer). The binding inhibition rate of the test compound was calculated by the following formula. Binding inhibition(%)=100−(radioactivity upon addition of test compound and hot MCH−radioactivity upon addition of cold MCH and hot MCH solution)/(radioactivity upon addition of DMSO solution and hot MCH−radioactivity upon addition of cold MCH and hot MCH solution)×100

The target of another series is hERG (Homo sapiens, UniProt Q12809). The series can be described thus: hERG activity measurement by IonWorks Quattro. Type of series: cell-based. The following applies: 5 minutes exposure, hERG stably expressed in CHO cells (CYL3038).
hERG, sequence (Q12809 whole entry): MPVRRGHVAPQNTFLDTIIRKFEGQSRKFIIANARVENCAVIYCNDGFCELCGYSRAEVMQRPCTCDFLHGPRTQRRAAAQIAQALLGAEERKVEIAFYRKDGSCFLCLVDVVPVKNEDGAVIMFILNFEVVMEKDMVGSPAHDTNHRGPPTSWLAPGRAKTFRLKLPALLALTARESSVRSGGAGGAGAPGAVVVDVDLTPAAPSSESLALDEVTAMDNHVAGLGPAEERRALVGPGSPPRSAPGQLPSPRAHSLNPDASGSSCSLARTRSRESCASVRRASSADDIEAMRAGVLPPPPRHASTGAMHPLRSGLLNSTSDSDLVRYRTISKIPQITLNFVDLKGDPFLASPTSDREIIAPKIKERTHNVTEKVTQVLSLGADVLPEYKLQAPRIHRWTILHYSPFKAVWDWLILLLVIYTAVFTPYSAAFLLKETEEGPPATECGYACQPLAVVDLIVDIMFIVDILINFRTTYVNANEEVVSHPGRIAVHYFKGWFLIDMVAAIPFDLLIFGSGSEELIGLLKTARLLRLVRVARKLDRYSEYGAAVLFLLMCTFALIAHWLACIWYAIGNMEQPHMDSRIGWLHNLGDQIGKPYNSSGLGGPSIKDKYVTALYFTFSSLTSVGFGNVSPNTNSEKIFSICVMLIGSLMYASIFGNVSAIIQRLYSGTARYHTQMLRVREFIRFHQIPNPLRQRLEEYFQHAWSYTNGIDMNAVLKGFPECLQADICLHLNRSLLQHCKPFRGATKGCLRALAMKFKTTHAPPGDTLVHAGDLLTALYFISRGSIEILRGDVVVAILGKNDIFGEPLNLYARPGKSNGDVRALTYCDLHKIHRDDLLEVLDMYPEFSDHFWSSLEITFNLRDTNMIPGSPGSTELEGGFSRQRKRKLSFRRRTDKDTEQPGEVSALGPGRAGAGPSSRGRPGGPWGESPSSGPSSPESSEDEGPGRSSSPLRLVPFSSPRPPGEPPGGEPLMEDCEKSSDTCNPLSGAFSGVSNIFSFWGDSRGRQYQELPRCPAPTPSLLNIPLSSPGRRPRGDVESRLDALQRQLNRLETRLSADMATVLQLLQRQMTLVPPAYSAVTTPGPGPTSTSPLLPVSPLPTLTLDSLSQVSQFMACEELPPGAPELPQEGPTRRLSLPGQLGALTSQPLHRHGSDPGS
The test system of series [2] is male diet-induced obese F344/Jcl rats. In words: Anorectic effect using male diet-induced obese F344/Jcl rats. Type of series: in vivo, rat. The following applies: oral, 5 mg/mL suspension in 0.5% methylcellulose at 2 mL/kg, two administrations; food intake for 2 days vs control group. How it is done:
Evaluation of Anorectic Effect Using Male Diet-Induced Obese F344/Jcl Rats
Male diet-induced obese F344/Jcl rats (41-52 weeks old) fed with a high-fat diet (D12451: Research Diets) from 5 weeks old were used. From before the start of experiment, the rats were singly housed, given a powder high-fat diet (D12451M: Research Diets), and habituated to oral administration with tap water. The food intake from the evening of the day before the start of experiment to the next morning was measured, and the rats were grouped based on both the food intake and the body weight of the previous day. In the evening of the day of the start of experiment and the next day, 0.5% methylcellulose solution was orally administered to the control group, and 0.5% methylcellulose suspension of the test compound (5 mg/mL) was orally administered to the compound administration group at 2 mL/kg (6 per group for both control group and compound administration group). The food intake for 2 days from the initial administration was measured. The food intake inhibition rate of each compound administration group to the control group was calculated.

T1 sequence (Q99705 whole entry): as the sequence (Q99705 whole entry) above
Method for hERG: A cell strain CYL3038 having hERG stably expressed in CHO cells was purchased from Millipore LIMITED. A subculture of CYL3038 was prepared using Ham's F-12 medium containing 10% FBS and 500 μg/mL Geneticin, under the presence of 5% CO2 at 32° C. hERG current inhibition was measured by PPC mode of IonWorks Quattro (Molecular Devices, Inc.). As an extracellular fluid, PBS (+) was used. As an intracellular fluid, 20 mM HEPES buffer (pH 7.3) containing 140 mM KCl, 2 mM MgCl2 and 1 mM EGTA was used, and the cell was perforated by amphotericin. As the voltage protocol, holding potential was set to −80 mV, prepulsevoltage was set to 40 mV (2 seconds) and test pulsevoltage was set to −50 mV (2 seconds). Current values before and after addition of compound are respectively recorded as pre-compound hERG current and post-compound hERG current.

For the molecule `Cc1c2cc(-n3ccc(OCc4ccc(Cl)cc4)cc3=O)ccc2nn1C` [Example 1, 4-[(4-chlorobenzyl)oxy]-1-(2,3-dimethyl-2H-indazol-5-yl)pyridin-2(1H)-one], the inhibition (commonly the percentage by which the read-out fell short of the control) at 0.1 µM is 83% on human MCHR1 and 72% in series [1]. Also, the “% hERG inhibition (10 μM)” value at hERG amounted to 22.1%. For the same molecule, the “Food intake suppression rate (%)” value in series [2] is recorded as 32.1%.

`Cc1c2cc(-n3ccc(OCc4csc(C(F)(F)F)n4)cc3=O)ccc2nn1C1CC1` [Example 46, 1-(2-cyclopropyl-3-methyl-2H-indazol-5-yl)-4-{[2-(trifluoromethyl)-1,3-thiazol-4-yl]methoxy}pyridin-2(1H)-one]: the inhibition at 0.1 µM was 78% on human MCHR1 and 50% in series [1]. For the same molecule, in series [2], the “Food intake suppression rate (%)” value came to 13.3%.

Regarding `Cc1c2cc(-n3ccc(OCc4csc(C(F)(F)F)c4)cc3=O)ccc2nn1C` [Example 22, 1-(2,3-dimethyl-2H-indazol-5-yl)-4-{[5-(trifluoromethyl)thiophen-3-yl]methoxy}pyridin-2(1H)-one], the inhibition at 0.1 µM at human MCHR1 is 69%; in series [1] it was 51%. The “Food intake suppression rate (%)” value in series [2] turned out to be 50.7%.

Consider `Cc1c2cc(-n3ccc(OCc4ccc(F)cc4)cc3=O)ccc2nn1C1CC1` [Example 6, 1-(2-cyclopropyl-3-methyl-2H-indazol-5-yl)-4-[(4-fluorobenzyl)oxy]pyridin-2(1H)-one], for which the inhibition at 0.1 µM at human MCHR1 worked out at 70%; in series [1], 72%. For the same molecule, the “Food intake suppression rate (%)” value in series [2] came out at 26.4%.

`Cc1c2cc(-n3ccc(OCc4ccc(Br)cc4)cc3=O)ccc2nn1C` [Example 25, 4-[(4-bromobenzyl)oxy]-1-(2,3-dimethyl-2H-indazol-5-yl)pyridin-2(1H)-one]: the inhibition at 0.1 µM came to 84% on human MCHR1 and 57% in series [1]. For the same molecule, the “Food intake suppression rate (%)” value in series [2] turned out to be 59.8%.

With `Cc1c2cc(-n3ccc(OCc4csc(C(F)(F)F)c4)cc3=O)ccc2nn1C1CC1` [Example 44, 1-(2-cyclopropyl-3-methyl-2H-indazol-5-yl)-4-{[5-(trifluoromethyl)thiophen-3-yl]methoxy}pyridin-2(1H)-one], the inhibition at 0.1 µM at human MCHR1 was 55%; in series [1] it was 77%. Also, the “Food intake suppression rate (%)” value in series [2] was 30.6%.
